The values below come from patent US20190054109A1, “An antiviral composition and a method for application thereof” (ALLA CHEM, LLC, priority 2017, published 2019).

The nature of data set [1]: Stability in human liver S9 fraction. In kind it is in vitro ADME. Here is the method: Proteins were deposited on ice for 15 min. The samples were then centrifuged for 10 min at 3000 rpm, and the supernatant (150 μl) was sampled for analysis.
Tolbutamide (Fluka) was used as the internal standard.

A further data set deals with gT1b NS5B HCV. Description: Anti-HCV activity in Huh7 cell line stably transfected with an HCV replicon. In kind it is cell-based, hepatitis C virus (HCV) genotype 1b. Here is the method:
Evaluation of anti-HCV activity and cytotoxicity for compositions comprising the prodrug of formula 1.1 and Sovaldi®. The antiviral activity of tested compositions comprising the prodrug was evaluated using an Huh7 human hepatocellular carcinoma cell line stably transfected with an HCV replicon. A cell suspension in a complete culture medium (DMEM 1×, Cellgro; cat. #10-013-CV) was transferred into 96-well plates (50 μl per well) with a final density of 7500 cells per well. The serial dilutions of tested prodrugs were prepared from a fresh 200-fold generic solution in DMSO with 11 concentration points and 3-fold dilution for each step starting from 20 nM in a complete medium and were used as 2-fold solutions in two replicates. Minimum 4 hours after planting the cells, 50 μl of serial prodrug dilutions was added to each well. The final prodrug concentration varied from 10 nM to 0.1 pM and that of DMSO, 0.5%. The plate with cells was incubated for 3 days at 37° C. under humidified 5% CO2. Upon completion of incubation, the medium was removed by turning the plate over and shaking it carefully. The cells were fixed for one minute with 100 μl of a 1:1 acetone:methanol solution, washed 3 times with a phosphate buffer (PBS), and blocked for 1 h at room temperature using a 10% fetal bovine serum (FBS) in PBS (150 μl/well). The cells were washed 3 times with PBS and incubated for 2 h at 37° C. with anti-NS5B HCV antibodies (100 μl/well) using Affinity BioReagents (cat. # MA1-080) and diluting the generic solution (1 mg/ml) in a ratio of 1:4000 in 10% FBS-PBS. The cells were washed 3 times with PBS and developed by an OPD solution (100 μl/well) using for each plate one OPD tablet dissolved in a citrate/phosphate buffer (12 ml)), whereto 5 μl of 30% H2O2 was added, for 30 minutes in the dark at room temperature. The reaction was stopped by 2N H2SO4 (100 μl/well), and OD490 was measured using the multifunctional reader Victor^3 V 1420 (Perkin Elmer). The values of EC50 for tested prodrugs were measured from an activity curve plotted using the GraphPad Prizm software.
(Replicon systems follow genome replication, usually without infectious particles.)

A further data set is described as follows: in vitro. The following applies: human, plasma. The method, then:
(§1) Evaluation of stability in biological matrix for compositions comprising the prodrug of formula 1.1. Initial compositions comprising the prodrug of formula 1.1 (the tested compounds) were prepared with a concentration of 10 mM in DMSO. From said compositions, 100-fold working solutions were prepared with a concentration of 100 μM in a mixture of acetonitrile: water with a volumetric ratio of 1:1.
The incubation was performed in a Vortemp56 shaking incubator at 37° C. with stirring at a rate of 300 rev/min. […] The samples were then centrifuged, and the supernatant (150 μl) was sampled for analysis […]. The incubation was performed in two replicates, with each sample measured twice.
Samples were analyzed using an HPLC-MS/MS technique developed for each tested prodrug, wherein the chromatographic system 1290 Infinity II (Agilent Technologies) was combined with the tandem mass spectrometer QTRAP5500 (AB Sciex). […] Scanning in a total ion current mode (MS1) allowed us to identify a molecular ion for each compound, and basic product ions were recorded in MS2 mode. […] In quantitative chromatogram processing, the most intensive MRM transition was used for the analyte and the internal standard. […]

The nature of data set [2]: Cytotoxicity in Huh7 cells (ATPLite kit). In kind it is cell-based. The conditions noted are these: human. The method, then: The cytotoxicity of tested compositions comprising the prodrug was evaluated concurrently in the same cell line Huh7 using an ATPLite kit (Perkin-Elmer, Boston, USA) in accordance with the manufacturer's instruction. The cell suspension in complete culture medium (DMEM 1×, Cellgro; cat. #10-013-CV) was transferred into 96-well plates with black walls and transparent bottoms (50 μl/well) with a final density of 7500 cells per well. Eighteen hours after planting the cells, serial compound dilutions (50 μl/well) were added. The plate with cells was incubated for 4 days at 37° C. in a humidified 5% CO2 atmosphere. The cells were then twice washed with PBS (200 μl/well) and lysed by adding a lytic buffer (50 μl/well); all reagents were taken from the ATPLite kit. Following a 5-minute stirring on a shaker, a substrate was added (50 μl/well). After an additional 5-minute incubation, the plate was kept for 10 minutes in the dark, and luminescence in the wells was measured using the multifunctional reader Victor^3 V 1420 (Perkin Elmer). The values of CC50 for tested compounds were measured from a cytotoxicity curve plotted using the GraphPad Prizm software.
Background: In ATP-based viability assays light output follows the ATP content of the culture.

A further data set is described as follows: physchem. The conditions noted are these: simulated gi fluid. Here is the method: as §1
The tested composition comprising the prodrug of formula 1.1 in a final concentration of 1 μM was incubated in artificial gastric juice (0.2% NaCl in 0.7% v/v HCl) and artificial intestinal juice (0.05M KH2PO4, pH 6.75). The incubation was performed in a Vortemp56 shaking incubator at 37° C. with stirring at a rate of 300 rev/min. […] The samples were then centrifuged, and the supernatant (150 μl) was sampled for analysis […]. The incubation was performed in two replicates, with each sample measured twice.
Samples were analyzed using an HPLC-MS/MS technique developed for each tested prodrug, wherein the chromatographic system 1290 Infinity II (Agilent Technologies) was combined with the tandem mass spectrometer QTRAP5500 (AB Sciex). When developing conditions for mass-spectrometric detection, the solutions of tested compounds in a mixture of acetonitrile-water (1:1) with a concentration of 100 ng/ml were injected directly into the mass spectrometer using a syringe pump with electrospray ionization carried out in a positive ion mode. Scanning in a total ion current mode (MS1) allowed us to identify a molecular ion for each compound, and basic product ions were recorded in MS2 mode. Then, to attain maximum sensitivity, the MS/MS technique was optimized in MRM mode. In quantitative chromatogram processing, the most intensive MRM transition was used for the analyte and the internal standard. Separation was carried out by means of linear gradient elution chromatography on a YMC Triart C18 column (50×2 mm, 1.9 μm) in a mobile phase consisting of 0.1% formic acid in water and 0.1% formic acid in acetonitrile. Tolbutamide (Fluka) was used as the internal standard.
Half-life (T1/2) was found from the kinetics of tested prodrug elimination in an antiviral composition during incubation in a biological matrix. The computations were based on the values of chromatographic peak areas for compounds in test samples normalized to the internal standard signal. From linear dependence of log normalized areas of chromatographic peaks on time, the constant of elimination rate was calculated (k is linear section slope).

The mark [3] stands for this setting: Hepatitis C virus, Huh-7, gT1b HCV replicon in Huh7, 10% FBS.

Molecules are shown by their SMILES.

A word on the EC50: it is the midpoint of the concentration-response curve. Broadly, the EC90 is the concentration needed for an effect of 90%. The term CC50 denotes the concentration that lowers cell viability or growth by half.

As to `C[C@H](N[P@](=O)(OC[C@H]1O[C@@H](n2ccc(=O)[nH]c2=O)[C@](C)(F)[C@@H]1O)Oc1ccccc1)C(=O)OC1CCC1` [Prodrug 1.1, cyclobutyl (S)-2-{(S)-[(2R,3R,4R,5R)-5-(3,4-dihydro-2,4-dioxo-2H-pyrimidin-1-yl)-3-hydroxy-4-methyl-4-fluoro-tetrahydro-furan-2-ylmethoxy]-phenoxy-phosphorylamino}-propanoate], the half-life at 1 μM is 3 min in data set [1] (pH 7.4, human liver S9 fraction 1 mg/ml protein, 37° C., 1 μM, read-out: T1/2 Human S9 (converted)); greater than 24 h in the data set “in vitro”; 12.7 to 15 h in “physchem” (T1/2 SGF, artificial gastric juice, 37° C.); greater than 24 h in “physchem” (pH 6.75). Also, the “metabolic rate in human liver microsomal S9 fraction relative to Sovaldi (faster)” value in data set [1] (ratio of T1/2 in human S9) is reported as 11 times. Besides, the EC50 in the data set on gT1b NS5B HCV (setting [3]) is 0.015 to 0.027 µM. Also, the EC90 in the data set on gT1b NS5B HCV (setting [3]) turned out to be 0.128 µM. Moreover, in the data set on gT1b NS5B HCV (comparison of EC50/EC90), the “activity against gT1b HCV relative to Sovaldi” value is “more than three times more active”. Besides, the CC90 at 4 days in data set [2] (Huh7, 10% FBS) is greater than 100 µM. The same compound came in with a 50% cytotoxic concentration (CC50) at 4 days in data set [2] (Huh7, ATPLite, 4 days) greater than 100 µM.
